According to US12391652B2 (priority 2019, dated 2025):

Legend:
[1] = tested on: soybean rust fungus (Phakopsora pachyrhizi); test: Test Example 1: curative foliar spray against soybean rust on potted soybean; type: in vivo; details: for Efficacy (%): 2 ppm foliar spray on soybean (cv; Kurosengoku) 4 days after inoculation, lesion area 7 days after spraying vs untreated group
Experimental: Each of 5 parts of the Ra1 type crystal form, or the Ra4 type crystal form as comparison control, 35 parts of a mixture of white carbon and ammonium polyoxyethylene alkyl ether sulfate (weight ratio is 1:1) and 60 parts of water were mixed, and the mixture was then finely-ground by a wet grinding method to obtain a formulation. Water was then added to the formulation so as to be 2 ppm as the concentration of the Ra1 type crystal form or the Ra4 type crystal form to obtain dilutions respectively.
Each of plastic pots was filled with soil and thereto soybean (cv; Kurosengoku) seeds were sown and the soybeans were grown in a greenhouse for 15 days. Thereafter, an aqueous suspension of spores of soybean rust fungus (Phakopsora pachyrhizi) was spraying-inoculated. After the inoculation, the soybeans were placed under a dark and wet condition at 23° C. for 1 night and were further cultivated in a greenhouse for 3 days, and the above-mentioned diluted dilutions were sprayed to foliar parts so as to adhere adequately on the leaves of the above-mentioned soybean. After spraying the dilutions, the plants were air-dried and were placed under a dark and wet condition at only night, and after 7 days of the spraying, the lesion area was observed (lesion area in treated group).
Whereas, in the untreated group, the similar procedures to those of the treated group except that the Ra1 type crystal form or the Ra4 type crystal form were not applied, were carried out and the lesion area of soybean rust disease in the untreated group was observed (lesion area in untreated group).
From each of the lesion area in the treated group or the untreated group respectively, the efficacy in the treated group was calculated by the following “Equation 1”. Efficacy (%)=[1−(lesion area in the treated group/lesion area in the untreated group)]×100 [Equation 1]

[2] = tested on: blast fungus (Pyricularia oryzae); type: in vivo; details: for Efficacy (%): 50 ppm foliar spray on rice (cv; Hinohikari), 8 days outdoor, then 11 days in contact with infected rice plants, lesion area vs untreated group; for Efficacy compared to the Ra4 type crystal form: rice blast, 50 ppm

SMILES	Efficacy (%) [1] [%]	Efficacy compared to the Ra4 type crystal form ([1]; soybean rust, 2 ppm)	Efficacy (%) [2] [%]	Efficacy compared to the Ra4 type crystal form [2]
CC1CC(C)(C)c2cccc(NC(=O)c3cn(C)nc3C(F)F)c21 (racemic) [Ra1 type crystal form, 3-(difluoromethyl)-1-methyl-N-(1,1,3-trimethyl-2,3-dihydro-1H-inden-4-yl)-1H-pyrazole-4-carboxamide]	72	higher efficacy compared to the Ra4 type crystal form	–	–
CC1CC(C)(C)c2cccc(NC(=O)c3cn(C)nc3C(F)F)c21 (racemic) [Ra2 type crystal form, 3-(difluoromethyl)-1-methyl-N-(1,1,3-trimethyl-2,3-dihydro-1H-inden-4-yl)-1H-pyrazole-4-carboxamide]	–	–	85	higher efficacy compared to the Ra4 type crystal form
CC1CC(C)(C)c2cccc(NC(=O)c3cn(C)nc3C(F)F)c21 (racemic) [Ra3 type crystal form, 3-(difluoromethyl)-1-methyl-N-(1,1,3-trimethyl-2,3-dihydro-1H-inden-4-yl)-1H-pyrazole-4-carboxamide]	–	–	75	higher efficacy compared to the Ra4 type crystal form
CC1CC(C)(C)c2cccc(NC(=O)c3cn(C)nc3C(F)F)c21 (racemic) [Ra4 type crystal form, 3-(difluoromethyl)-1-methyl-N-(1,1,3-trimethyl-2,3-dihydro-1H-inden-4-yl)-1H-pyrazole-4-carboxamide, reference compound]	54	–	50	–
